One may read the IC50 as the concentration at which inhibition is half-maximal. Read a high IC50 as a need for much substance.

Among the data in BindingDB's records for doi:10.3109/14756366.2013.793184 (Nycomed, 2014) are IC50 values, retold here.

Where “and” joins values, the source holds several entries; their conditions need not be identical. Equal entries are not always repeated.

This experiment has as its target Inosine-5'-monophosphate dehydrogenase 2 (Homo sapiens, UniProt P12268). As to the kind of experiment: Enzyme Assay. The note with it: pH 8; 37 °C. The method, then: The reaction was initiated by the addition of 300 μM of IMP and 500 μM of NAD+ and the assay was allowed to proceed at 37 °C for 50 min before stopping by the addition of 15 mM GMP. The NADH generated was measured by reading the absorbance at 340 nm.
For the molecule `CCC(CC#N)OC(=O)N[C@@H](C)c1cccc(NC(=O)Nc2ccc(OC)c(OC)c2)c1` (some centres not stated) [IMPDH II inhibitor, 13], the IC50 worked out at 0.23 µM.
`CCC(CC#N)OC(=O)N[C@@H](C)c1cccc(NC(=O)Nc2ccc(C)c(OC)c2)c1` (some centres not stated) [IMPDH II inhibitor, 14] returned an IC50 of 19 µM.
Regarding `CCC(CC#N)OC(=O)N[C@@H](C)c1cccc(NC(=O)Nc2ccc(N3CCOCC3)c(OC)c2)c1` (some centres not stated) [IMPDH II inhibitor, 15], the IC50 is less than 30 µM.
For `CCC(CC#N)OC(=O)N[C@@H](C)c1cccc(NC(=O)Nc2ccc(C3=CCOCC3)c(OC)c2)c1` (some centres not stated) [IMPDH II inhibitor, 16] the value was 3.5 µM; for `CCC(CC#N)OC(=O)N[C@@H](C)c1cccc(NC(=O)Nc2ccc(C3CCOCC3)c(OC)c2)c1` (some centres not stated) [IMPDH II inhibitor, 17], less than 30 µM.
Under `CCC(CC#N)OC(=O)N[C@@H](C)c1cccc(NC(=O)Nc2ccc3c(c2)OCC3)c1` (some centres not stated) [IMPDH II inhibitor, 18] stands 10 µM.
In turn, `CCC(CC#N)OC(=O)N[C@@H](C)c1cccc(NC(=O)Nc2ccc3c(c2)OCO3)c1` (some centres not stated) [IMPDH II inhibitor, 20] gave an IC50 greater than 30 µM.
As to `CCC(CC#N)OC(=O)N[C@@H](C)c1cccc(NC(=O)Nc2ccc3c(c2)ncn3C)c1` (some centres not stated) [IMPDH II inhibitor, 21], it took 14 µM to reach half-maximal inhibition (IC50).
Turning to `CCC(CC#N)OC(=O)N[C@@H](C)c1cccc(NC(=O)Nc2ccc3ncc(OC)nc3c2)c1` (some centres not stated) [IMPDH II inhibitor, 22], the IC50 is less than 30 µM.
Under `CCC(CC#N)OC(=O)N[C@@H](C)c1cccc(NC(=O)Nc2ccc3cc(OC)c(OC)cc3c2)c1` (some centres not stated) [IMPDH II inhibitor, 23] stands less than 30 µM.
Molecule `CCC(CC#N)OC(=O)N[C@@H](C)c1cccc(NC(=O)Nc2ccc3c(c2)C(C)CO3)c1` (some centres not stated) [IMPDH II inhibitor, 24] registered an IC50 of less than 30 µM.
Turning to `CCC(CC#N)OC(=O)N[C@@H](C)c1cccc(NC(=O)Nc2ccc3ncnc(OC)c3c2)c1` (some centres not stated) [IMPDH II inhibitor, 25], the IC50 is less than 30 µM.
For `CCC(CC#N)OC(=O)N[C@@H](C)c1cccc(NC(=O)Nc2ccc3c(=O)cc(C)oc3c2)c1` (some centres not stated) [IMPDH II inhibitor, 26] the value was less than 30 µM.
On to `CCC(CC#N)OC(=O)N[C@@H](C)c1cccc(NC(=O)Nc2ccc3c(=O)ccoc3c2)c1` (some centres not stated) [IMPDH II inhibitor, 27], for which the IC50 is less than 10 µM.
Regarding `CCC(CC#N)OC(=O)N[C@@H](C)c1cccc(NC(=N)Nc2ccc(C#N)c(OC)c2)c1` (some centres not stated) [IMPDH II inhibitor, 30], the IC50 is < 30 µM and 30 µM.
Under `CCC(CC#N)OC(=O)N[C@@H](C)c1cccc(NC(=N)Nc2ccc(OC)c(OC)c2)c1` (some centres not stated) [IMPDH II inhibitor, 31] stands less than 30 µM; under `CCC(CC#N)OC(=O)N[C@@H](C)c1cccc(N/C(=N/C#N)Nc2ccc(C#N)c(OC)c2)c1` (some centres not stated) [IMPDH II inhibitor, 32], 3 µM.
For `CCC(CC#N)OC(=O)N[C@@H](C)c1cccc(N/C(=N/C#N)Nc2ccc(OC)c(OC)c2)c1` (some centres not stated) [IMPDH II inhibitor, 33] the value was 5.6 µM.
Molecule `CCC(CC#N)OC(=O)N[C@@H](C)c1cccc(N/C(=C/[N+](=O)[O-])Nc2ccc(C#N)c(OC)c2)c1` (some centres not stated) [IMPDH II inhibitor, 34] came in with an IC50 of less than 30 µM.
For `CCC(CC#N)OC(=O)N[C@@H](C)c1cccc(N/C(=C/[N+](=O)[O-])Nc2ccc(OC)c(OC)c2)c1` (some centres not stated) [IMPDH II inhibitor, 35], the IC50 is less than 30 µM.
The molecule `CCC(CC#N)OC(=O)N[C@@H](C)c1cccc(NCC(=O)Nc2ccc(OC)c(OC)c2)c1` (some centres not stated) [IMPDH II inhibitor, 36] showed an IC50 of less than 30 µM.
Consider `CCC(CC#N)OC(=O)N[C@@H](C)c1cccc(NC(=O)CNc2ccc(C#N)c(OC)c2)c1` (some centres not stated) [IMPDH II inhibitor, 37], for which the IC50 was less than 30 µM.
`CCC(CC#N)OC(=O)N[C@@H](C)c1cccc(NC(=O)COc2ccc(C#N)c(OC)c2)c1` (some centres not stated) [IMPDH II inhibitor, 38] yielded an IC50 of less than 30 µM.
As for `CCC(CC#N)OC(=O)N[C@@H](C)c1cccc(NC(=O)COc2ccc(OC)c(OC)c2)c1` (some centres not stated) [IMPDH II inhibitor, 39], the IC50 was less than 30 µM.
Molecule `CCC(CC#N)OC(=O)N[C@@H](C)c1cccc(NC(=O)NS(=O)(=O)c2ccc(OC)c(OC)c2)c1` (some centres not stated) [IMPDH II inhibitor, 40] yielded an IC50 of less than 30 µM.
Molecule `CCC(CC#N)OC(=O)N[C@@H](C)c1cccc(NC(=O)N2CCN(c3ccc(C#N)c(OC)c3)CC2)c1` (some centres not stated) [IMPDH II inhibitor, 41] yielded an IC50 of less than 30 µM.
As to `CCC(CC#N)OC(=O)N[C@@H](C)c1cccc(N2C(=O)CN(c3ccc(C#N)c(OC)c3)C2=O)c1` (some centres not stated) [IMPDH II inhibitor, 42], the IC50 was 25 µM.
Under `CCC(CC#N)OC(=O)N[C@@H](C)c1cccc(NC(=O)c2cncc(-c3ccc(C#N)c(OC)c3)n2)c1` (some centres not stated) [IMPDH II inhibitor, 43] stands less than 30 µM.
Under `CCC(CC#N)OC(=O)N[C@@H](C)c1cccc(Nc2nc3ccc(-c4ccc(C#N)c(OC)c4)cc3[nH]2)c1` (some centres not stated) [IMPDH II inhibitor, 44] stands less than 30 µM; under `COc1cc(N/C(=N/C#N)Nc2cccc(OCC(=O)C(C)=O)c2)ccc1C#N` [IMPDH II inhibitor, 45], less than 30 µM.
Consider `COc1cc(N/C(=N/C#N)Nc2cccc(OCC(=O)O)c2)ccc1C#N` [IMPDH II inhibitor, 46], for which the half-maximal inhibitory concentration (IC50) is less than 30 µM.
Under `COc1cc(N/C(=N/C#N)Nc2cccc(-c3nnn(C)n3)c2)ccc1C#N` [IMPDH II inhibitor, 47] stands less than 30 µM; under `COc1cc(N/C(=N/C#N)Nc2cccc(-c3nnnn3C)c2)ccc1C#N` [IMPDH II inhibitor, 48], less than 30 µM.
On to `COc1cc(N/C(=N/C#N)Nc2cccc(Cc3nnn(C)n3)c2)ccc1C#N` [IMPDH II inhibitor, 49], for which the half-inhibitory concentration (IC50) was less than 30 µM.
For `COc1cc(N/C(=N/C#N)Nc2cccc(CCC(=O)O)c2)ccc1C#N` [IMPDH II inhibitor, 50] the value was less than 30 µM; for `COc1cc(N/C(=N/C#N)Nc2cccc(/C=C/C(=O)O)c2)ccc1C#N` [IMPDH II inhibitor, 51], less than 30 µM; for `COc1cc(N/C(=N/C#N)Nc2cccc(CC(=O)O)c2)ccc1C#N` [IMPDH II inhibitor, 52], less than 30 µM.
On to `COc1cc(N/C(=N/C#N)Nc2cccc(C(=O)O)c2)ccc1C#N` [IMPDH II inhibitor, 53], for which the IC50 is less than 30 µM.
The molecule `COc1cc(N/C(=N/C#N)Nc2cccc(-c3ccccc3F)c2)ccc1C#N` [IMPDH II inhibitor, 54] showed an IC50 of less than 30 µM.
`COc1cc(N/C(=N/C#N)Nc2cccc(-c3cccc(F)c3)c2)ccc1C#N` [IMPDH II inhibitor, 55] registered an IC50 of less than 30 µM.
For `COc1cc(N/C(=N/C#N)Nc2cccc(-c3ccc(F)cc3)c2)ccc1C#N` [IMPDH II inhibitor, 56] the value was less than 30 µM; for `COc1cc(N/C(=N/C#N)Nc2cccc(-c3cccc(C(F)(F)F)c3)c2)ccc1C#N` [IMPDH II inhibitor, 57], less than 30 µM.
For the molecule `COc1cc(N/C(=N/C#N)Nc2cccc(-c3cccc(C(=O)O)c3)c2)ccc1C#N` [IMPDH II inhibitor, 58], the IC50 was less than 30 µM.
Take `COc1cc(N/C(=N/C#N)Nc2cccc(-c3ccc(C#N)cc3)c2)ccc1C#N` [IMPDH II inhibitor, 59]: the IC50 is less than 30 µM.
In turn, `COc1cc(N/C(=N/C#N)Nc2cccc(-c3cccc(C#N)c3)c2)ccc1C#N` [IMPDH II inhibitor, 60] came in with a 50% inhibitory concentration (IC50) of less than 30 µM.
Turning to `CCC(CC#N)OC(=O)N[C@@H](C)c1cccc(NC(=O)Nc2ccc(C#N)c(OC)c2)c1` (some centres not stated) [VX-148 (3)], the IC50 is 0.38 µM.
As for `COc1cc(NC(=O)Nc2cccc(CNC(=O)OC3CCOC3)c2)ccc1-c1cnco1` (configuration not stated) [VX-497 (2)], 0.0035 µM corresponded to half-maximal inhibition (IC50).
